What all share (test): microscale thermophoresis
(In general: Microscale thermophoresis detects binding through changes in fluorescence in a small temperature gradient.)

Experiment [1] addresses T1, OmpA-like peptidoglycan-binding domain of R. rubrum PapS (Rhodospirillum rubrum, UniProt Q2RP23).
T1 construct: gene Rru_A3328; isolated C-terminal OmpA-like domain, residues 156-273; His6-SUMO tag cut by Ulp1; E. coli Rosetta(DE3)pLysS; RED-NHS labelled
An excerpt: microscale thermophoresis on OmpA-like peptidoglycan-binding domain of R. rubrum PapS | isolated OmpA-like domain of PapS bound mDAP in vitro, albeit with lower affinity

Experiment [2] addresses T2, OmpA-like peptidoglycan-binding domain of R. rubrum PapS (Rhodospirillum rubrum, UniProt Q2RP23, R223A).
T2 construct: gene Rru_A3328; isolated C-terminal OmpA-like domain, residues 156-273; His6-SUMO tag cut by Ulp1; E. coli Rosetta(DE3)pLysS; RED-NHS labelled
The settings on record: MST buffer 25 mM HEPES/NaOH pH 8, 50 mM NaCl, 0.1% Tween; 25 °C; 100 nM RED-NHS labelled protein; mDAP 1.5 µM to 50 mM.

The target of experiment [3] is T3, A. baumannii OmpA (OmpA-like peptidoglycan-binding domain) (Acinetobacter baumannii, UniProt Q6RYW5).
T3 construct: gene omp38; isolated periplasmic OmpA-like domain, residues 221-339; His6-SUMO tag cut by Ulp1; E. coli Rosetta(DE3)pLysS; RED-NHS labelled
T3 sequence (Q6RYW5 221-339): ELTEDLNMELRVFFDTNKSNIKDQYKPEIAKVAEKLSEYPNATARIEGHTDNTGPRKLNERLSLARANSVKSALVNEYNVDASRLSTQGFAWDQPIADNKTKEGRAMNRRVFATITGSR

T2 sequence (Q2RP23 entry or part of it R223A): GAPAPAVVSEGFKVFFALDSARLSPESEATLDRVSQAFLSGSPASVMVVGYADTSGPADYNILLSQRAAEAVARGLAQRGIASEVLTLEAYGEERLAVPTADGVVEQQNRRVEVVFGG
T1 sequence (Q2RP23 entry or part of it): as the sequence (Q2RP23 entry or part of it R223A) above, with A68R counted along it

Turning to `N[C@H](CCC[C@H](N)C(=O)O)C(=O)O` [mDAP], the results for the dissociation constant Kd in experiment [1] and in experiment [3] were 2500 µM and 9 µM, respectively. Besides, the mDAP binding entry in experiment [2] was “In vitro analysis verified that the mutant domain no longer showed mDAP-binding activity”.

Broadly, the Kd is the equilibrium constant for the complex coming apart. Low readings indicate higher affinity, high ones lower affinity.

Source of the values: PMC11369160, “An outer membrane porin-lipoprotein complex modulates elongasome movement to establish cell curvature in Rhodospirillum rubrum” (Nature Communications, 2024).
